We go through 9 molecules from US9580463B2 (BRISTOL-MYERS SQUIBB COMPANY, priority 2013, dated 2017).

Read-outs that look alike come from different tables or passages of the source.

The subject of experiment [1] is HCV genotype 1b (Con1) replicon in HUH-7 cells. The experiment in a line: HCV replicon luciferase reporter assay, genotype 1b. It is filed as cell-based. Particulars: Hepatitis C virus, 72 h, genotype 1b replicon, 3 days incubation. In a few lines: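 Twenty-point, threefold compound titrations (0.5% DMSO) were incubated 3 days at 37 °C with 3.0×10^3 HUH-7 cells/well in 4% FCS. The cells stably carried luciferase replicons: genotype 1b Con1 (S1179I) or 1a H77 (NS3 P1496L, NS5A S2204I). Renilla signal was read after 2 h with 7.5 μM EnduRen, and EC50 was taken from a four-parameter logistic fit. Cytotoxicity (CC50) was measured by Cell Titer-Blue, 8 h.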
(In general: Replicon systems follow genome replication, usually without infectious particles.)

The test system of experiment [2] is HCV genotype 1a (H77 strain) replicon in HUH-7 cells. The experiment in a line: HCV replicon luciferase reporter assay, genotype 1a. In kind it is cell-based. Particulars: Hepatitis C virus, 72 h, genotype 1a replicon, 3 days incubation. The text has this: An HCV replicon whole cell system was established as described by Lohmann V, Korner F, Koch J, Herian U, Theilmann L, Bartenschlager R., Science 285(5424):110-3 (1999) and modified to introduce a luciferase reporter, as first described by Krieger et al (Krieger N, Lohmann V, and Bartenschlager R, J. Virol. 75(10):4614-4624 (2001)). CDNA encoding a humanized form of the Renilla luciferase gene and a linker sequence fused directly to the 3′-end of the luciferase gene were introduced into the replicon construct using an Asc1 restriction site located in core, directly upstream of the neomycin marker gene. The adaptive mutation at position 1179 (serine to isoleucine) was also introduced (Blight K J, Kolykhalov, A A, Rice, C M, Science 290(5498):1972-1974). A stable cell line constitutively expressing this HCV replicon construct was generated by first linearizing plasmid DNAs with ScaI. RNA transcripts were synthesized in vitro using the T7 MegaScript transcription kit (Ambion, Austin, Tex.) according to manufacturer's directions. In vitro transcripts of the cDNA were transfected into the human hepatoma cell line, HUH-7. […] Resulting cell lines were characterized for positive and negative strand RNA production and protein production over time.
A stable HCV replicon luciferase reporter cell line representing the genotype 1a H77 strain (Yanagi M, Purcell R H, Emerson S U, et al. Transcripts from a single full-length cDNA clone of hepatitis C virus are infectious when directly transfected into the liver of a chimpanzee. Proc Natl Acad Sci USA 1997; 94(16):8738-8743) was generated as described previously for the genotype 1b (Con1) replicon luciferase cell line. The replicon construct was modified by introducing mutations were introduced into the genes encoding the NS3 helicase domain (proline replaced by leucine at position 1496) and NS5A (serine to isoleucine at position 2204) to improve replication in cell culture.
HCV replicon luciferase assays were developed to monitor the inhibitory effects of compounds described in the disclosure on HCV genotypes 1a and 1b viral replication. HUH-7 cells, constitutively expressing the HCV replicon, were grown in Dulbecco's Modified Eagle Media (DMEM) (Gibco-BRL) containing 10% Fetal calf serum (FCS) (Sigma) and 1 mg/mL G418 (Gibco-BRL). Compounds were serially diluted 3 folds in DMSO for a twenty-point titration and subsequently transferred to sterile 384-well tissue-culture treated plates (Corning cat #3571). The plates were then seeded with 50 μL of cells at a density of 3.0×10^3 cells/well in DMEM containing 4% FCS (final DMSO concentration at 0.5%). After 3 days incubation at 37° C., cells were analyzed for Renilla Luciferase activity using the EnduRen as substrate (Promega cat #E6485). The EnduRen substrate was diluted in DMEM and then added to the plates to a final concentration of 7.5 μM. The plates were incubated for 2 hrs at 37° C. and then read immediately for 30 seconds with Viewlux Imager (PerkinElmer) using a luminescence program. To assess cytotoxicity of compounds, CC50 values were generated by multiplexing the EnduRen-containing plates with Cell Titer-Blue (Promega, cat # G8082). Cell-Titer Blue (3 μL) was added to each well and incubated for 8 hrs at 37° C. The fluorescence signal from each well was read, with an excitation wavelength at 525/10 nm and an emission wavelength of 598/10 nm, using the Viewlux Imager.
The EC50 values for compounds were calculated by using a four-parameter logistic equation: y=A+((B−A)/(1+((C/x)^D))), where A and B denotes minimal and maximal % inhibition, respectively, C is the EC50, D is the hill slope and x represents compound concentration.

Regarding `COC[C@@H]1C[C@@H](C)CC/C=C\[C@@H]2C[C@@]2(C(=O)NS(=O)(=O)C2(C)CC2)NC(=O)[C@@H]2C[C@@H](Oc3ncc(OC)c4ccccc34)CN2C(=O)[C@H]1NC(=O)OC(C)(C)C` [Compound 1011, tert-butyl ((2R,6S,7R,9S,13aS,14aR,16aS,Z)-2-((4-methoxyisoquinolin-1-yl)oxy)-7-(methoxymethyl)-9-methyl-14a-(((1-methylcyclopropyl)sulfonyl)carbamoyl)-5,16-dioxo-1,2,3,5,6,7,8,9,10,11,13a,14,14a,15,16,16a-hexadecahydrocyclopropa[e]pyrrolo[1,2-a][1,4]diazacyclopentadecin-6-yl)carbamate], the EC50 (in general, the midpoint of the concentration-response curve) in experiment [1] (read-out: LE_1b (EC50, range)) was in the range of 1.01 to 5 nM; in experiment [2] (read-out: LE_1a (EC50, range)), 1.01 to 5 nM.
As to `COC[C@@H]1C[C@H](C)CC/C=C\[C@@H]2C[C@@]2(C(=O)NS(=O)(=O)C2CC2)NC(=O)[C@@H]2C[C@@H](Oc3ncc(OC)c4ccccc34)CN2C(=O)[C@H]1NC(=O)OC(C)(C)C(F)(F)F` [Compound 1012, 1,1,1-trifluoro-2-methylpropan-2-yl ((2R,6S,7R,9R,13aS,14aR,16aS,Z)-14a-((cyclopropylsulfonyl)carbamoyl)-2-((4-methoxyisoquinolin-1-yl)oxy)-7-(methoxymethyl)-9-methyl-5,16-dioxo-1,2,3,5,6,7,8,9,10,11,13a,14,14a,15,16,16a-hexadecahydrocyclopropa[e]pyrrolo[1,2-a][1,4]diazacyclopentadecin-6-yl)carbamate], the EC50 was 0.1 to 0.5 nM in experiment [1] (read-out: LE_1b (EC50, range)) and 0.51 to 1 nM in experiment [2] (read-out: LE_1a (EC50, range)).
Taken in the same sequence, the figures for `COC[C@@H]1C[C@@H](C)CC/C=C\[C@@H]2C[C@@]2(C(=O)NS(=O)(=O)C2CC2)NC(=O)[C@@H]2C[C@@H](Oc3ncc(OC)c4ccccc34)CN2C(=O)[C@H]1NC(=O)OC(C)(C)C(F)(F)F` [Compound 1013, 1,1,1-trifluoro-2-methylpropan-2-yl ((2R,6S,7R,9S,13aS,14aR,16aS,Z)-14a-((cyclopropylsulfonyl)carbamoyl)-2-((4-methoxyisoquinolin-1-yl)oxy)-7-(methoxymethyl)-9-methyl-5,16-dioxo-1,2,3,5,6,7,8,9,10,11,13a,14,14a,15,16,16a-hexadecahydrocyclopropa[e]pyrrolo[1,2-a][1,4]diazacyclopentadecin-6-yl)carbamate] were 1.01 to 5 nM and 1.01 to 5 nM.
For `COC[C@@H]1C[C@H](C)CC/C=C\[C@@H]2C[C@@]2(C(=O)NS(=O)(=O)C2(C)CC2)NC(=O)[C@@H]2C[C@@H](Oc3nccc4cc(OC)ccc34)CN2C(=O)[C@H]1NC(=O)OC(C)(C)C(F)(F)F` [Compound 1014, 1,1,1-trifluoro-2-methylpropan-2-yl ((2R,6S,7R,9R,13aS,14aR,16aS,Z)-2-((6-methoxyisoquinolin-1-yl)oxy)-7-(methoxymethyl)-9-methyl-14a-(((1-methylcyclopropyl)sulfonyl)carbamoyl)-5,16-dioxo-1,2,3,5,6,7,8,9,10,11,13a,14,14a,15,16,16a-hexadecahydrocyclopropa[e]pyrrolo[1,2-a][1,4]diazacyclopentadecin-6-yl)carbamate], in that order: 0.51 to 1 nM and 1.01 to 5 nM.
On to `COC[C@@H]1C[C@@H](C)CC/C=C\[C@@H]2C[C@@]2(C(=O)NS(=O)(=O)C2(C)CC2)NC(=O)[C@@H]2C[C@@H](Oc3nccc4cc(OC)ccc34)CN2C(=O)[C@H]1NC(=O)OC(C)(C)C(F)(F)F` [Compound 1015, 1,1,1-trifluoro-2-methylpropan-2-yl ((2R,6S,7R,9S,13aS,14aR,16aS,Z)-2-((6-methoxyisoquinolin-1-yl)oxy)-7-(methoxymethyl)-9-methyl-14a-(((1-methylcyclopropyl)sulfonyl)carbamoyl)-5,16-dioxo-1,2,3,5,6,7,8,9,10,11,13a,14,14a,15,16,16a-hexadecahydrocyclopropa[e]pyrrolo[1,2-a][1,4]diazacyclopentadecin-6-yl)carbamate], for which the EC50 lay in the range of 1.01 to 5 nM in experiment [1] (read-out: LE_1b (EC50, range)) and 1.01 to 5 nM in experiment [2] (read-out: LE_1a (EC50, range)).
`COC[C@@H]1C[C@H](C)CC/C=C\[C@@H]2C[C@@]2(C(=O)NS(=O)(=O)C2(C)CC2)NC(=O)[C@@H]2C[C@@H](Oc3ncc(OC)c4ccccc34)CN2C(=O)[C@H]1NC(=O)OC(C)(C)C(F)(F)F` [Compound 1016, 1,1,1-trifluoro-2-methylpropan-2-yl ((2R,6S,7R,9R,13aS,14aR,16aS,Z)-2-((4-methoxyisoquinolin-1-yl)oxy)-7-(methoxymethyl)-9-methyl-14a-(((1-methylcyclopropyl)sulfonyl)carbamoyl)-5,16-dioxo-1,2,3,5,6,7,8,9,10,11,13a,14,14a,15,16,16a-hexadecahydrocyclopropa[e]pyrrolo[1,2-a][1,4]diazacyclopentadecin-6-yl)carbamate]: the EC50 in experiment [1] (read-out: LE_1b (EC50)) was 0.26 nM; in experiment [1] (read-out: LE_1b (EC50, range)) it was 0.1 to 0.5 nM; in experiment [2] (read-out: LE_1a (EC50)), 0.84 nM; in experiment [2] (read-out: LE_1a (EC50, range)) it was 0.51 to 1 nM.
With `COC[C@@H]1C[C@@H](C)CC/C=C\[C@@H]2C[C@@]2(C(=O)NS(=O)(=O)C2(C)CC2)NC(=O)[C@@H]2C[C@@H](Oc3ncc(OC)c4ccccc34)CN2C(=O)[C@H]1NC(=O)OC(C)(C)C(F)(F)F` [Compound 1017, 1,1,1-trifluoro-2-methylpropan-2-yl ((2R,6S,7R,9S,13aS,14aR,16aS,Z)-2-((4-methoxyisoquinolin-1-yl)oxy)-7-(methoxymethyl)-9-methyl-14a-(((1-methylcyclopropyl)sulfonyl)carbamoyl)-5,16-dioxo-1,2,3,5,6,7,8,9,10,11,13a,14,14a,15,16,16a-hexadecahydrocyclopropa[e]pyrrolo[1,2-a][1,4]diazacyclopentadecin-6-yl)carbamate], the EC50 in experiment [1] (read-out: LE_1b (EC50, range)) fell in the range of 0.51 to 1 nM; in experiment [2] (read-out: LE_1a (EC50, range)), 1.01 to 5 nM.
With `COC[C@@H]1C[C@@H](C)CC/C=C\[C@@H]2C[C@@]2(C(=O)NS(=O)(=O)C2CC2)NC(=O)[C@@H]2C[C@@H](Oc3nccc4cc(OC)ccc34)CN2C(=O)[C@H]1NC(=O)OC(C)(C)C(F)(F)F` [Compound 1018, 1,1,1-trifluoro-2-methylpropan-2-yl ((2R,6S,7R,9S,13aS,14aR,16aS,Z)-14a-((cyclopropylsulfonyl)carbamoyl)-2-((6-methoxyisoquinolin-1-yl)oxy)-7-(methoxymethyl)-9-methyl-5,16-dioxo-1,2,3,5,6,7,8,9,10,11,13a,14,14a,15,16,16a-hexadecahydrocyclopropa[e]pyrrolo[1,2-a][1,4]diazacyclopentadecin-6-yl)carbamate], the 50% effective concentration (EC50) in experiment [1] (read-out: LE_1b (EC50, range)) was 1.01 to 5 nM; in experiment [2] (read-out: LE_1a (EC50, range)), 1.01 to 5 nM.
For the molecule `COC[C@@H]1C[C@H](C)CC/C=C\[C@@H]2C[C@@]2(C(=O)NS(=O)(=O)C2CC2)NC(=O)[C@@H]2C[C@@H](Oc3nccc4cc(OC)ccc34)CN2C(=O)[C@H]1NC(=O)OC(C)(C)C(F)(F)F` [Compound 1019, 1,1,1-trifluoro-2-methylpropan-2-yl ((2R,6S,7R,9R,13aS,14aR,16aS,Z)-14a-((cyclopropylsulfonyl)carbamoyl)-2-((6-methoxyisoquinolin-1-yl)oxy)-7-(methoxymethyl)-9-methyl-5,16-dioxo-1,2,3,5,6,7,8,9,10,11,13a,14,14a,15,16,16a-hexadecahydrocyclopropa[e]pyrrolo[1,2-a][1,4]diazacyclopentadecin-6-yl)carbamate], the EC50 was in the range of 0.51 to 1 nM in experiment [1] (read-out: LE_1b (EC50, range)) and 1.01 to 5 nM in experiment [2] (read-out: LE_1a (EC50, range)).
